Test results published in article PMC8436411 (ACS Medicinal Chemistry Letters, 2021).
Converted amounts (≈) assume the structure as drawn. “And” between values parts separate entries of the source, which are not always exact repeats. Equal entries are not always repeated. Where two headings read alike, the source gives them in different places.

Assays:
[1] = test system: E. coli (ATCC 25922); conditions: Table S3; ref 10 (SI); cited from earlier work
[2] = test system: S. aureus (ATCC 29213); conditions: Table S3; ref 10 (SI); cited from earlier work
[3] = test system: Enterococcus faecalis DRK 057 (ATCC 29212); conditions: Table S3; ref 10 (SI); cited from earlier work
[4] = test system: E. coli N43 (CGSC no. 5583); conditions: Table S3; AcrA knockout strain; ref 10 (SI); cited from earlier work
[5] = test system: E. coli D22; conditions: Table S3; mutation in the lpxC gene that increases membrane permeability; ref 10 (SI); cited from earlier work
[6] = test system: Salmonella alachua RDK 030c (QA-1482/04); conditions: Table S3; ref 10 (SI); cited from earlier work
[7] = test system: Streptococcus agalactiae RDK 047 (QA-990/02); conditions: Table S3; ref 10 (SI); cited from earlier work
[8] = test system: MRSA (QA-11.7); conditions: Table S3; ref 10 (SI); cited from earlier work
[9] = test system: Pseudomonas aeruginosa RDK 184 (DSM 939); conditions: cited from earlier work; for MIC P. aeruginosa RDK 184 (DSM 939): Table S3, ref 10 (SI)
[10] = biological target: T1, S. aureus DNA gyrase (Staphylococcus aureus, UniProt P20831); test: DNA gyrase supercoiling inhibition assay (S. aureus); assay type: biochemical; conditions: mean of two independent measurements ± SD
T1 construct: purchased Inspiralis (Norwich, UK)
T1 sequence (P20831 whole entry, looked up): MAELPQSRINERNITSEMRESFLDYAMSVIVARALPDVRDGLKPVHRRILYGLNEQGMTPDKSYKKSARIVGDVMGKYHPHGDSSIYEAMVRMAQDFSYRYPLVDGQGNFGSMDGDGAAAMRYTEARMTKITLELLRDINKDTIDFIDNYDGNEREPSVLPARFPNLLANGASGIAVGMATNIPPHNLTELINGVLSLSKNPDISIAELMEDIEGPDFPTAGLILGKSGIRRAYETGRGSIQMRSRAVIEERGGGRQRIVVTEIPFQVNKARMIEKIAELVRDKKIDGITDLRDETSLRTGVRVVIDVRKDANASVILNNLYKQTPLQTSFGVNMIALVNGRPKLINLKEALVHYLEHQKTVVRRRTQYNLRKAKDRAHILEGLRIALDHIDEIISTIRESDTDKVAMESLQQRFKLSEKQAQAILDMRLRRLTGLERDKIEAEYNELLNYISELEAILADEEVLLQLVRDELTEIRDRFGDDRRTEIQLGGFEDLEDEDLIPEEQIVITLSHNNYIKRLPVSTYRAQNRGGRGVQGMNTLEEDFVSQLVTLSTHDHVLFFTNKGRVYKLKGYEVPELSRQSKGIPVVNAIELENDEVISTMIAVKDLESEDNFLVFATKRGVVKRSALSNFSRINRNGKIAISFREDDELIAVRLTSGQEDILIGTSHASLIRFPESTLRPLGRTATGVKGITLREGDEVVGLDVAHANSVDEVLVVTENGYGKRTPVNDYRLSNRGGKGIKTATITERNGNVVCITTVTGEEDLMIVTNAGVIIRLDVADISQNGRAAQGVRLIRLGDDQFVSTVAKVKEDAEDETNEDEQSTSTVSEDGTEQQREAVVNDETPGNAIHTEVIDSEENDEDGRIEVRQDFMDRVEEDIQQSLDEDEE
Experimental: We synthesized and biologically evaluated ten new compounds. We determined their inhibitory activity, expressed as IC50 values, on both Gram-positive S. aureus and Gram-negative E. coli bacterial enzymes (DNA gyrase and topo IV), respectively. The in vitro antibacterial activity, expressed as minimum inhibitory concentration (MIC), was determined against broad spectrum of bacteria, including Gram-positive (Staphylococcus aureus, methicillin-resistant Staphylococcus aureus, Streptococcus agalactiae, and Enterococcus faecalis) and Gram-negative strains (Escherichia coli, Salmonella alachua, Pseudomonas aeruginosa, and Klebsiella pneumoniae), enriched with various MRSA strains resistant to various antibiotics as well as E. coli strains with increased membrane permeability and lack of efflux pump, as well. Furthermore, the selectivity of compounds for bacterial enzyme compared to the orthologous human topoisomerase IIα was also considered. The in vitro safety profile was determined by cytotoxicity assessment on human umbilical vein endothelial cell lines (HUVEC) and HepG2 liver cancer cell lines.
Determination of DNA gyrase and topoisomerase IV inhibitory activities
To determine the IC50 values of the compounds, a Gyrase Supercoiling High Throughput Plate assay kit and a TopoIV Relaxation High Throughput Plate assay kit, commercially available from Inspiralis (Norwich, UK), were used for S. aureus and E. coli. The assays were performed on black streptavidin-coated 96-well microtiter plates (Thermo Scientific Pierce, Norwich, UK) and the wells were first […]
BSA and 0.05% [v/v] Tween-20). Biotinylated oligonucleotide diluted with the wash buffer was then immobilized in each well and the excess was removed with the wash buffer. 1.5 U of the enzyme S. aureus or E. coli DNA gyrase (topoIV) was incubated together with 0.75 μg of relaxed (supercoiled) pNO1 plasmid as substrate in the presence of 3 μl inhibitor solution in 10% DMSO and 0.008% Tween-20 at 37°C for 30 min in a final reaction volume of 30 μl in the assay buffer (S. aureus DNA gyrase: 40 mM HEPES.KOH (pH 7.6), 10 mM magnesium acetate, 10 mM DTT, 2 mM ATP, 500 mM potassium glutamate and 0.05 mg/ml albumin; E. coli DNA gyrase: 35 mM Tris.HCl (pH 7.5), 24 […]
mg/ml albumin; S. aureus topo IV: 50 mM Tris.HCl (7.5), 5 mM MgCl 2, 5 mM DTT, 1.5 mM ATP, 350 mM potassium glutamate and 0.05 mg/ml albumin; E. coli topo IV: 40 mM HEPES.KOH (pH 7.6), 100 mM potassium glutamate, 10 mM magnesium acetate, 10 mM DTT, 1 mM ATP and 50 μg/ml albumin). The reaction was stopped by adding the TF buffer (50 mM NaOAc (pH 4.7), 50 mM NaCl and 50 mM MgCl2) to allow triplex formation (biotin oligonucleotide plasmid) for another 30 min. Finally, the unbound plasmid was washed off using the TF buffer and the Promega Diamond dye was added to T10 buffer (10 mM Tris-HCl (pH 8.0), 1 mM EDTA) solution. After 15 min the solution […]
Two inhibitor concentrations of 100 and 1 μM were used for pre-screening. The IC 50 values […]
(IC50) was calculated by nonlinear regression-based fitting of the inhibition curves using the log [inhibitor] versus response-variable slope (four parameters) – symmetrical equation, in GraphPad Prism 6.0 software (GraphPad Software, CA, USA). The IC50 value represents the average of two independent measurements.
The minimum inhibitory concentrations (MICs) were determined using the broth micro-dilution method in 96-well plate format according to the Clinical and Laboratory Standards Institute

[11] = biological target: T2, S. aureus topoIV (Staphylococcus aureus, UniProt Q2FYS4); test: TopoIV decatenation inhibition assay (S. aureus); assay type: biochemical; conditions: read-out: IC50 TopoIV S. aureus, mean of two independent measurements ± SD
T2 construct: purchased Inspiralis (Norwich, UK)
T2 sequence (Q2FYS4 whole entry, looked up): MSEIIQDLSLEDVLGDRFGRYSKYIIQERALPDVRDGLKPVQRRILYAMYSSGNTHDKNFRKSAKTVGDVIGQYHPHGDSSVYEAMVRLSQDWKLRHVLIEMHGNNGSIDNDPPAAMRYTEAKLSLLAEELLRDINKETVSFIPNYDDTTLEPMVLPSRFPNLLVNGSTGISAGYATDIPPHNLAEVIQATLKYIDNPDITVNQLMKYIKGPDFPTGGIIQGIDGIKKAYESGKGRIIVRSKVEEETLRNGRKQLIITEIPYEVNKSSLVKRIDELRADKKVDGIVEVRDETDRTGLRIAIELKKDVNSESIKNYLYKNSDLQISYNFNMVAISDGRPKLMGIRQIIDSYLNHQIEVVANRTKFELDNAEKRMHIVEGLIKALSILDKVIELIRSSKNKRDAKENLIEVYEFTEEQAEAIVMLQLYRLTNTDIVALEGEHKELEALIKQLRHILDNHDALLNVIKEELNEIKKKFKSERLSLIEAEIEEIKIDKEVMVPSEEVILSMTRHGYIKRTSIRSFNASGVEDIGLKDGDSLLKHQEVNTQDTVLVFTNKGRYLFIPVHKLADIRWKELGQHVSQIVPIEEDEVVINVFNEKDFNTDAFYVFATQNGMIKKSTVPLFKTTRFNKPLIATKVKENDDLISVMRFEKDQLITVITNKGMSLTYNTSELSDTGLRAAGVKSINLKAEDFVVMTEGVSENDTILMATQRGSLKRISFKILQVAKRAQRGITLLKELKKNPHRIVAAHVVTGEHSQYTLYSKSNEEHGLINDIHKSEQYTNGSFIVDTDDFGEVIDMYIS

[12] = biological target: Human topoisomerase IIα (Homo sapiens, UniProt P11388); test: Human topoisomerase IIα residual activity; assay type: biochemical; conditions: read-out: Human topoisomerase IIα (%RA)
Chain of Human topoisomerase IIα (P11388 whole entry): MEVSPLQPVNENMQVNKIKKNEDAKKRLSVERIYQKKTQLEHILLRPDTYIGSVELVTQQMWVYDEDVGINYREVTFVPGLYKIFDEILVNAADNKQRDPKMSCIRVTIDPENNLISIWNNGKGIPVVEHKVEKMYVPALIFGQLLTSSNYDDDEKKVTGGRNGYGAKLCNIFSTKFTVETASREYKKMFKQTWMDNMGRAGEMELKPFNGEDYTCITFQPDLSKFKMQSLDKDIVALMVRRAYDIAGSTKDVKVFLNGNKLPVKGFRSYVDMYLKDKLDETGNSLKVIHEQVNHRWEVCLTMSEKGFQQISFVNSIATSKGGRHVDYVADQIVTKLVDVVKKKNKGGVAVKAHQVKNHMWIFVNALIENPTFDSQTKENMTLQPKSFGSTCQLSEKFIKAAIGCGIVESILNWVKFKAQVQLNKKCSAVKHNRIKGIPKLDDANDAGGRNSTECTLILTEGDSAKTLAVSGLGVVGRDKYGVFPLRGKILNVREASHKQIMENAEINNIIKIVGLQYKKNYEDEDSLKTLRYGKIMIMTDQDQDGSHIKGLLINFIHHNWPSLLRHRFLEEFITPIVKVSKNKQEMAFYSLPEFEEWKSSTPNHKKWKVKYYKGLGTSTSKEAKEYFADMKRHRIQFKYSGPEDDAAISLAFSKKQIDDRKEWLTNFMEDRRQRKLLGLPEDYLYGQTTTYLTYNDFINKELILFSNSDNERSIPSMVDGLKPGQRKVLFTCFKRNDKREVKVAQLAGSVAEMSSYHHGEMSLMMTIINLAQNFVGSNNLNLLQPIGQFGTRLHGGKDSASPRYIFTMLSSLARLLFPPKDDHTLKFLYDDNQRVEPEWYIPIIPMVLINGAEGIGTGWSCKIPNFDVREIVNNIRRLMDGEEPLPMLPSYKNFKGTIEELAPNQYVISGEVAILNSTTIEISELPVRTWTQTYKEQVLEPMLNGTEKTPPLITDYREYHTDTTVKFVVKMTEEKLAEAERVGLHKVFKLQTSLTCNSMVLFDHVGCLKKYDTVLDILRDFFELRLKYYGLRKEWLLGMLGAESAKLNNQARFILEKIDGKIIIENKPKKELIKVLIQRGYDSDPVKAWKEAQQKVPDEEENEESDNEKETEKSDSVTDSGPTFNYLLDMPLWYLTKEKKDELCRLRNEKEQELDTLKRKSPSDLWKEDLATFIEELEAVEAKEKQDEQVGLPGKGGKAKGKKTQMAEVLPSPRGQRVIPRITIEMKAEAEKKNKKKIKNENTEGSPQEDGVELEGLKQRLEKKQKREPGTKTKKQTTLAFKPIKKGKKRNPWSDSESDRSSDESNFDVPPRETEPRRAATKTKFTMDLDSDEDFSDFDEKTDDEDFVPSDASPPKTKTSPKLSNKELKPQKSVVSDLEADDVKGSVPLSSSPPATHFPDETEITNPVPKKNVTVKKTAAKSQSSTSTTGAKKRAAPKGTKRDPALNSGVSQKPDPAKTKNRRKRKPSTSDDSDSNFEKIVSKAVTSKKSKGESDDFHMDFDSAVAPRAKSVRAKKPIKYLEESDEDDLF

[13] = test system: Salmonella alachua RDK 030c (QA-1482/04); test: microbe, parasite or virus in culture
Experimental: (§1) The in vitro antibacterial activity, expressed as minimum inhibitory concentration (MIC), was determined against broad spectrum of bacteria, including Gram-positive (Staphylococcus aureus, methicillin-resistant Staphylococcus aureus, Streptococcus agalactiae, and Enterococcus faecalis) and Gram-negative strains (Escherichia coli, Salmonella alachua, Pseudomonas aeruginosa, and Klebsiella pneumoniae), enriched with various MRSA strains resistant to various antibiotics as well as E. coli strains with increased membrane permeability and lack of efflux pump, as well. […]
(§2) The minimum inhibitory concentrations (MICs) were determined using the broth micro-dilution method in 96-well plate format according to the Clinical and Laboratory Standards Institute […]
(§3) guidelines8 and European Committee on Antimicrobial Susceptibility Testing recommendations9. The bacterial suspension of the specific bacterial strain equivalent to the 0.5 McFarland turbidity standard was diluted with cation-adapted Mueller Hinton broth with TES (Thermo Fisher Scientific) to obtain a […]
(§4) The compounds dissolved in DMSO and inoculum were mixed together and incubated for 20 h at 35 °C.

[14] = test system: Klebsiella pneumoniae; test: microbe, parasite or virus in culture
Experimental: as §1, §2, §3, §4

[15] = test system: Pseudomonas aeruginosa RDK 184 (DSM 939); test: microbe, parasite or virus in culture
Experimental: as §1, §2, §3, §4

[16] = test system: MRSA (QA-11.7); test: microbe, parasite or virus in culture; conditions: Staphylococcus aureus, read-out: MIC MRSA (QA-11.7)
Experimental: as §1, §2, §3, §4

[17] = test system: E. coli N43 (CGSC no. 5583); test: microbe, parasite or virus in culture; conditions: Escherichia coli
Experimental: as §1, §2, §3, §4

[18] = test system: Streptococcus agalactiae RDK 047 (QA-990/02); test: microbe, parasite or virus in culture
Experimental: as §1, §2, §3, §4

[19] = test system: MRSA (QA-12.1); test: microbe, parasite or virus in culture; conditions: Staphylococcus aureus, read-out: MIC MRSA (QA-12.1)
Experimental: as §1, §2, §3, §4

[20] = test system: E. coli D22; test: microbe, parasite or virus in culture; conditions: Escherichia coli
Experimental: as §1, §2, §3, §4

[21] = test system: S. aureus (ATCC 29213); test: microbe, parasite or virus in culture; conditions: Staphylococcus aureus, ATCC29213, read-out: MIC S. aureus (ATCC 29213)
Experimental: as §1, §2, §3, §4

[22] = test system: E. coli (ATCC 25922); test: microbe, parasite or virus in culture; conditions: Escherichia coli, ATCC25922, read-out: MIC E. coli (ATCC 25922)
Experimental: as §1, §2, §3, §4

[23] = test system: Enterococcus faecalis DRK 057 (ATCC 29212); test: microbe, parasite or virus in culture
Experimental: as §1, §2, §3, §4

[24] = read-out: MIC S. alachua RDK 030c (QA-1482/04)
[25] = read-out: MIC Salmonella alachua RDK 030c (QA-1482/04)
[26] = read-out: MIC Klebsiella pneumoniae
[27] = DSM939, read-out: MIC P. aeruginosa RDK 184 (DSM 939)
[28] = DSM939, read-out: MIC Pseudomonas aeruginosa RDK 184 (DSM 939)
[29] = read-out: MIC E. coli N43 (CGSC no. 5583)
[30] = read-out: MIC E. coli N43 (CGSC# 5583)
[31] = read-out: MIC S. agalactiae RDK 047 (QA-990/02)
[32] = read-out: MIC Streptococcus agalactiae RDK 047 (QA-990/02)
[33] = ATCC29212, read-out: MIC E. faecalis DRK 057 (ATCC 29212)
[34] = ATCC29212, read-out: MIC Enterococcus faecalis DRK 057 (ATCC 29212)

COc1ccc2nccc(CCN3CCC(NCc4ccc(Cl)cc4)CC3)c2n1 [Compound 1]
MIC E. coli (ATCC 25922) [1]: 9.73 µM (≈ 4 µg/mL)
MIC S. aureus (ATCC 29213) [2]: 0.304 µM (≈ 0.125 µg/mL)
MIC E. faecalis DRK 057 (ATCC 29212) [3]: 2.43 µM (≈ 0.999 µg/mL)
MIC E. coli N43 (CGSC# 5583) [4]: 1.22 µM (≈ 0.501 µg/mL)
MIC E. coli D2 [5]: 4.87 µM (≈ 2 µg/mL)
MIC S. alachua RDK 030c (QA-1482/04) [6]: 77.9 µM (≈ 32 µg/mL)
MIC S. agalactiae RDK 047 (QA-990/02) [7]: 2.43 µM (≈ 0.999 µg/mL)
MIC MRSA (QA-11.7) [8]: 1.22 µM (≈ 0.501 µg/mL)
MIC P. aeruginosa RDK 184 (DSM 939) [9]: > 311 µM
MIC Pseudomonas aeruginosa RDK 184 (DSM 939) [9]: >128 µg/mL

COc1ccc2nccc(CCN3CCC(NCc4ccc(Br)cc4)CC3)c2n1 [Compound 2]
MIC E. coli (ATCC 25922) [1]: 4.39 µM (≈ 2 µg/mL)
MIC S. aureus (ATCC 29213) [2]: 0.068 µM (≈ 0.031 µg/mL)
MIC E. faecalis DRK 057 (ATCC 29212) [3]: 2.20 µM (≈ 1 µg/mL)
MIC E. coli N43 (CGSC# 5583) [4]: 0.274 µM (≈ 0.125 µg/mL)
MIC E. coli D2 [5]: 0.274 µM (≈ 0.125 µg/mL)
MIC S. alachua RDK 030c (QA-1482/04) [6]: 35.1 µM (≈ 16 µg/mL)
MIC S. agalactiae RDK 047 (QA-990/02) [7]: 1.098 µM (≈ 0.5 µg/mL)
MIC MRSA (QA-11.7) [8]: 0.136 µM (≈ 0.0619 µg/mL)
MIC P. aeruginosa RDK 184 (DSM 939) [9]: 281 µM (≈ 128 µg/mL)

COc1ccc2nccc(CCN3CCC(NCc4ccc(I)cc4)CC3)c2n1 [Compound 3]
MIC E. coli (ATCC 25922) [1]: 3.98 µM (≈ 2 µg/mL)
MIC S. aureus (ATCC 29213) [2]: 0.016 µM (≈ 0.00804 µg/mL)
MIC E. coli N43 (CGSC# 5583) [4]: 0.155 µM (≈ 0.0779 µg/mL)
MIC E. coli D2 [5]: 0.249 µM (≈ 0.125 µg/mL)
MIC S. alachua RDK 030c (QA-1482/04) [6]: 15.9 µM (≈ 7.99 µg/mL)
MIC S. agalactiae RDK 047 (QA-990/02) [7]: 0.249 µM (≈ 0.125 µg/mL)
MIC MRSA (QA-11.7) [8]: 0.016 µM (≈ 0.00804 µg/mL)
MIC P. aeruginosa RDK 184 (DSM 939) [9]: 63.7 µM (≈ 32 µg/mL)

COc1ccc2nccc(CCN3CCC(NCc4ccc(I)c(F)c4)CC3)c2n1 [Compound 6]
IC50 [10]: 4 nM
IC50 [11]: 90 ± 102 nM
remaining activity at 10 µM [12]: 97.7 ± 1.31%
MIC [13, 24]: 3.84 µM
MIC [13, 25]: 2 µg/mL
MIC ([14]; read-out: MIC K. pneumoniae): 15.4 µM
MIC [14, 26]: 8 µg/mL
MIC [15, 27]: 30.7 µM
MIC [15, 28]: 16 µg/mL
MIC [16]: 0.031 µM and 0.016 µg/mL
MIC [17, 29]: 0.016 µg/mL
MIC [17, 30]: 0.031 µM
MIC [18, 31]: 0.48 µM
MIC [18, 32]: 0.25 µg/mL
MIC [19]: 0.031 µM and 0.016 µg/mL
MIC ([20]; D22, read-out: MIC E. coli D2): 0.119 µM
MIC ([20]; D22, read-out: MIC E. coli D22): 0.062 µg/mL
MIC [21]: 0.015 µM and 0.008 µg/mL
MIC [22]: 0.961 µM and 0.5 µg/mL
MIC [23, 33]: 0.48 µM
MIC [23, 34]: 0.25 µg/mL

COc1ccc2nccc(CCN3CCC(NCc4ccc(Cl)cn4)CC3)c2n1 [Compound 13]
IC50 [10]: 123 ± 19 nM
remaining activity at 10 µM ([12]; residual activity at 10 μM compound, mean ± SD, two independent experiments): 99.36 ± 0.34%
MIC [13, 24]: > 311 µM
MIC [13, 25]: > 128 µg/mL
MIC ([14]; read-out: MIC K. pneumoniae): > 311 µM
MIC [14, 26]: > 128 µg/mL
MIC [15, 27]: > 311 µM
MIC [15, 28]: > 128 µg/mL
MIC [16]: 0.607 µM and 0.25 µg/mL
MIC [17, 29]: 8 µg/mL
MIC [17, 30]: 19.4 µM
MIC [18, 31]: 19.4 µM
MIC [18, 32]: 8 µg/mL
MIC [19]: 0.607 µM and 0.25 µg/mL
MIC ([20]; D22, read-out: MIC E. coli D2): 38.8 µM
MIC ([20]; D22, read-out: MIC E. coli D22): 16 µg/mL
MIC [21]: 0.303 µM and 0.125 µg/mL
MIC [22]: 77.7 µM and 32 µg/mL
MIC [23, 33]: 9.71 µM
MIC [23, 34]: 4 µg/mL
